Experiments:
[1] = Phenoxy radical formation and stability by ESR after reaction of stabilising compound with benzoyl peroxide in toluene; details: 2% by weight each of compound and benzoyl peroxide in toluene; 70° C. for 24 hours, then at rest to ambient temperature
Description: In the case of stabilising compounds of phenolic nature, phenolic radicals characterised by long life have to form within the polymer in order for the antioxidant activity of the stabilising compound to take effect, and therefore the formation and stability of radicals of this type, originating from the reaction between the stabilising compounds of the present invention and benzoyl peroxide in toluene, are taken as parameters for evaluating the stabilising action of the stabilising compounds concerned.
In particular, in this test, toluene solutions containing 4% by weight of the stabilising compound are prepared simultaneously with solutions containing the same weight percentage of benzoyl peroxide. A small quantity of the stabilising compound solution is then mixed with an equal quantity of the benzoyl peroxide solution.
After mixing, a solution containing 2% by weight of each component is obtained. 1 ml of the resultant solution is then transferred to an ESR (electronic spin resonance) sample tube where it is degassed and sealed under vacuum. The system obtained in this manner is heated to 70° C. for 24 hours. The radical stability is checked by ESR spectra both during the 24 hour heating period and during the subsequent time, in which the system is left at rest to cool to ambient temperature.

[2] = Accelerated oven ageing of polypropylene film: growth of carbonyl index (IR band at 1720 cm^-1); details: air circulation oven at 140° C.; 0.1% of the weight of the polymer; 100 μm film; extrapolated to zero carbonyl index; absent stabiliser: 2
Description: (§1) Accelerated thermal ageing tests are also carried out on polypropylene stabilised by the stabilising compounds of the present invention, and in particular the following tests are carried out:
measurements of the growth of the carbonyl index on polypropylene film containing the stabilising compound and subjected to thermal treatment; and
In the first case, the carbonyl index is evaluated from the IR spectrum for the film, by measuring the band intensity at 1720 cm^-1, and is defined by the relationship: [formula] where Io is the initial band intensity, It is the intensity at time t and S is the film thickness in μm.
The polypropylene film containing the stabilising compound is prepared by dissolving the stabilising compound in benzene and mixing the resultant solution with powdered polypropylene containing no other additive.
The stabilising compound is added in a quantity of 0.1% of the weight of the polymer. The benzene is then removed by evaporation under reduced pressure, and the residual powder is pressed into a film of 100 μm thickness.
The pressing is carried out at a temperature of 160° C. under a pressure of 900 kg/cm^2 for a time of 5 minutes. The film is extracted from the press and is rapidly cooled under running water.
The film prepared in this manner is then subjected to accelerated ageing in an air circulation oven at 140° C.
(§2) The polypropylene used for the tests is the commercial product Moplen® FL 20F of the Montedison Company.
Time of oven treatment (at 140° C.) required for inducing the formation of the IR band at 1720 cm^-1 in polypropylene films without stabilising compound and with stabilising compound.

[3] = Melt flow index variation of stabilised polypropylene on repeated extrusion; set-up: unit not given here; details: ASTM-D1238, 90° C., 2.16 kg/cm^2
Description: as §1
measurements of the variation in the melt flow index of the polypropylene containing the stabilising compound and subjected to repeated extrusion.
Finally, the melt flow index variation measurements are carried out on polypropylene powder mixed with the stabilising compound by stirring for 30 minutes in a planetary mixer. The repeated extrusions are carried out in an extruder of 19 mm diameter, of length 25 times its diameter, and provided with a 2 mm nozzle and a screw, the compression ratio being 1:4, the speed being 50 r.p.m. The temperature profile along the extruder is 175° C.; 230° C.; 270° C.; 270° C.
After each extrusion, the filament obtained is cut into granules to be subjected to a new extrusion passage.
At the end of each passage, some of the granules are used for measuring the melt flow index in accordance with ASTM-D1238, operating at 90° C. and at a pressure of 2.16 kg/cm^2.
The melt flow index values after 1, 3, 5 and 7 passages through the extruder are shown for polypropylene stabilised by certain stabilisers according to the present invention in Table 3.
as §2
Melt flow index of polypropylene containing the stabilising compound as a function of the number of successive passages through the extruder.

Structure (SMILES)	t 1/2: time required to reduce to one half the ESR signal intensity for the phenoxy radicals [1] [h]	t 1/4: time required to reduce to one quarter the ESR signal intensity for the phenoxy radicals [1] [h]	Induction time for the formation of the IR band at 1720 cm^-1 (carbonyl band) in polypropylene films [2] [h]	Melt flow index of polypropylene containing the stabilising compound ([3]; 1 extrusion)	Melt flow index of polypropylene containing the stabilising compound ([3]; 3 extrusions)	Melt flow index of polypropylene containing the stabilising compound ([3]; 5 extrusions)	Melt flow index of polypropylene containing the stabilising compound ([3]; 7 extrusions)
CC(C)(C)c1cc(CCC(=O)Oc2cccc(OC(=O)CCc3cc(C(C)(C)C)c(O)c(C(C)(C)C)c3)c2OC(=O)CCc2cc(C(C)(C)C)c(O)c(C(C)(C)C)c2)cc(C(C)(C)C)c1O [Example 1, benzene-1,2,3-tri[3-(4'-hydroxy-3',5'-di-tert-butylphenyl)propionate]]	20	100	260				
CC(C)(C)c1cc(CCC(=O)Nc2ccc(OC(=O)CCc3cc(C(C)(C)C)c(O)c(C(C)(C)C)c3)cc2)cc(C(C)(C)C)c1O [Example 4, phenylene-1-[3-(4'-hydroxy-3',5'-di-tert-butylphenyl)propionate]-4-[3-(4'-hydroxy-3',5'-di-tert-butylphenyl)propionamide]]	15	150		7.42	10.36	13.09	15.78
CC(C)(C)c1cc(CCC(=O)Oc2cc(C(=O)O)cc(OC(=O)CCc3cc(C(C)(C)C)c(O)c(C(C)(C)C)c3)c2OC(=O)CCc2cc(C(C)(C)C)c(O)c(C(C)(C)C)c2)cc(C(C)(C)C)c1O [Example 2, benzene-3,4,5-tri[3-(4'-hydroxy-3',5'-di-tert-butylphenyl)propionate]-1-carboxylic acid]			160				
CC(C)(C)c1cc(CCC(=O)OCCOc2ccc(OCCOC(=O)CCc3cc(C(C)(C)C)c(O)c(C(C)(C)C)c3)cc2)cc(C(C)(C)C)c1O [Example 3, 1,4-phenylene-bis-(oxyethylidene)-bis-[3-(4'-hydroxy-3',5'-di-tert-butylphenyl)propionate]]	24	90	575	7.34	9.91	12.59	14.61

Source: patent US4668725A, “Stabilizing compounds for organic polymers, and stabilized polymer compounds which contain them” (Enichem Sintesi S.p.A., priority 1984, dated 1987)
